The record followed here is patent publication US20200172974A1, “BIOMARKER FOR ANTI-TNF THERAPY IN RETINAL DISEASES” (HADASIT MEDICAL RESEARCH SERVICES & DEVELOPMENT LTD., priority 2017, published 2020).

In assay [1] the test system is choroidal neovascularization (CNV). Description: Laser-induced model of CNV (LI-CNV). Format: in vivo, Long-Evans rats. To be noted: flat mounts 10 days after laser injury. The protocol: Long-Evans rats (8-12 weeks old) were used to generate LI-CNV. Animals were treated in accordance to the guidelines of ARVO. Experiments were conducted with the approval of the institutional animal care ethics committee. Before each procedure, rats were anesthetized by intraperitoneal injections of a mixture of 85% ketamine (Bedford Laboratories, Bedford, Ohio) and 15% xylazine (VMD, Arendonk, Belgium). Topical anesthesia (Oxybuprocaine HCL 0.4%; Fisher Pharmaceuticals, Tel-Aviv, Israel) was applied to each eye 10 minutes before intravitreal injections or laser photocoagulation.
Laser burns (5-7 burns per eye) were generated. Intravitreal injections of all compounds were performed using a PLI-100 Pico-Injector (Medical System Corp., Greenvale, N.Y.) two days following the laser to allow for CNV development, and every 2 days thereafter for a total of 10 days. iMfs were injected only once, two days after laser injury was performed.
Experimental groups included: 4 μl of PBS, 1 μl of 100 μg/μl infliximab, 1 μl of 100 μg/μl aflibercept, 1 μl of 100 μg/μl infliximab with 1×10^5 M(IFNγ and LPS) suspended in 4 μl of PBS; 1 μl of 100 μg/μl aflibercept with 1×10^5 M(IFNγ and LPS) suspended in 4 μl of PBS; and 1×10^5 M(IFNγ and LPS) suspended in 4 μl of PBS, for a total of 5 experimental groups and 1 control group. Each experimental group included 8 injected eyes of 4 rats. The compound dosage was previously described (Xu et al., (2008)). Antibiotic ointment (5% Chloramphenicol) was applied after every injection. Choroid-RPE and retinal flat mounts were prepared 10 days following the laser injury.
RPE-choroidal flat-mounts were fixated for one hour in 4% PFA and suspended overnight in isolectin solution (GS-Ib4 Alexa 594 staining solution, Molecular Probes, Eugene, Oreg.) containing 200 mM NaN3 and 1 mM CaCl2). Flat mounts were then washed 6 times for 20 minutes in PBS and embedded on a slide with a mounting medium. The CNV area around each laser injury was measured using the ImageJ software.

The subject of assay [2] is choroidal sprouting (choroid-sclera complex with RPE in Matrigel). Description: Choroid-sprouting assay (CSA), ex-vivo angiogenesis assay. It is filed as cell-based, C57/BL6J mice. Conditions: fixed after 8 days. The method, then:
Cytokines were added to the media based on the maximal level of each cytokine via ELISA of M(IFNγ and LPS)-derived media. Five (5) cytokines were tested (n=8; replicates for each cytokine): 0.25 ng/μl VEGF, 0.5 ng/μl IL-8, 2.5 ng/μl IL-6, 0.05 ng/μl IL-1β, and 0.8 5 ng/μl TNFα (PeproTech, Rocky Hill, N.J., USA). Anti-TNF (infliximab, 100 μg/μl Remsima, Celltrion Inc., South Korea) and anti-VEGF (Aflibercept, 40 μg/μl, Bayer Pharma AG, Berlin, Germany), with or without iMfs' supernatant were also studied in the CSA. Compounds' concentrations were based on previous studies (Grattendick et al., (2008)). Controls included medium-treated CSA and iMfs' supernatant treated CSA.
C57/BL6J 4-6 weeks old mice, treated in accordance with the guidelines of the Association for Research in Vision and Ophthalmology (ARVO), were utilized to generate the CSA. Experiments were conducted with the approval of the institutional animal care ethics committee. Five (5) minutes after injecting with ketamine, animals were evaluated for responses and euthanized by cervical dislocation. Eyes were immediately enucleated and kept in ice-cold ECGS medium containing 100 units/ml penicillin-streptomycin and 1% glutamine before dissection. A choroid-sclera complex from the mice was gently dissected along with retinal pigment epithelium (RPE). The complex was cut into 5-6 1 mm long pieces. Fragments were embedded in 30 μl of growth factor-reduced-Matrigel™ (BD Biosciences, Cat. 354230) in 24-well plates. The thickness of the Matrigel™ was approximately 0.4 mm. Plates were then incubated for 10 minutes in 37° C., in a 5% CO2 cell culture incubator without medium to solidify the Matrigel™. Five hundred (500) μl of medium containing ECGM (C-22010, Promocell, Germany) 2.5% supplement mix (C-9215, Promocell, Germany), 5% FCS, 100 units/ml penicillin-streptomycin, and 1% glutamine, was added to each well. For the experimental groups containing the iMfs' supernatant, the medium was replaced with 250 μl of iMfs' supernatant. Medium for each well was changed every 3 days, and the cultures were fixed with 4% PFA after 8 days. Cultures were viewed with an inverted phase-contrast CKX41 Olympus microscope, and images were photographed with an Olympus DP70 digital camera (Olympus, Tokyo, Japan).
ImageJ software was used for sprouting area quantification. Sprouting area was selected by the software and measured after excluding the choroid tissue. Background (control well, for each plate, supplemented with medium only) was subtracted and analysis was performed for each sample. Ratios of each well of experimental group and its relative control from the same eye were calculated and averaged with its replicates.

Setting [3] is: intravitreal injection together with 1×10^5 M(IFNγ and LPS) iMfs.
Where [4] appears, read: intravitreal injection, substance alone, compared to PBS.
[5] abbreviates: substance added alone to CSA medium, cytokines at maximal level found in M(IFNγ and LPS) media, infliximab 100 μg/μl.

For the substance Aflibercept [anti-VEGF], the “Mean of CNV size±SEM” value worked out at 0.02±0.001 in assay [1] (setting [3]) and 0.024±0.002 in assay [1] (setting [4]). Consider “IL-1β: recombinant cytokine (PeproTech), 0.05 ng/μl”, for which, in assay [2] (setting [5]), the “Mean of relative ratio between treated and untreated wells±SEM (sprouting area)” value is on record as 0.8±0.2. As to “IL-6: recombinant cytokine (PeproTech), 2.5 ng/μl”, in assay [2] (setting [5]), the “Mean of relative ratio between treated and untreated wells±SEM (sprouting area)” value is on record as 0.64±0.1. In the case of “IL-8: recombinant cytokine (PeproTech), 0.5 ng/μl”, the “Mean of relative ratio between treated and untreated wells±SEM (sprouting area)” value in assay [2] (setting [5]) was found to be 0.47±0.14. Consider TNFα, for which, in assay [2] (setting [5]), the “Mean of relative ratio between treated and untreated wells±SEM (sprouting area)” value is given as above 1.6±0.2. The same measure, in the same setting: as for VEGF, the figure is 0.86±0.08. Regarding infliximab [anti-TNF], the figures for the “Mean of CNV size±SEM” value in assay [1] (setting [3]) and in assay [1] (setting [4]) were above 0.036±0.004 and 0.045±0.005, respectively. Further, the “Mean of relative ratio between treated and untreated wells±SEM (sprouting area)” value in assay [2] (setting [5]) was 1.14±0.06; in assay [2] (with M(IFNγ and LPS)s' supernatant), above 1.06±0.04.
